Source: patent publication US20160220569A1, “CDK4/6 Inhibitor Dosage Formulations For The Protection Of Hematopoietic Stem And Progenitor Cells During Chemotherapy” (G1 Therapeutics, Inc., priority 2015, published 2016)
“And” between values parts separate entries of the source, which are not always exact repeats. Equal entries are not always repeated.

Experiment: 14-day oral gavage toxicokinetic study in rats
Format: in vivo
Conditions: for Compound 1 Plasma Concentration: daily oral 2 mg/kg (Group 7), individual animals
Method: Plasma was obtained from blood samples collected from rats in a composite sampling scheme, with 3 samples collected per sex, per dose, at each target collection time, as illustrated in Table 21 to Table 25. Samples were collected from the vehicle control group on Day 1 and Day 14 at 3 hour after administration. […] Blood samples were collected in tubes containing K3EDTA as an anticoagulant and placed on ice until processed to plasma via centrifugation. Samples were stored frozen at −80° C. until shipment to the bioanalytical laboratory for analysis.
The following parameters were determined:
Cmax: Maximum observed plasma concentration (ng/mL).
A value of 0 ng/mL was assigned to all values below the lower limit of quantitation (BLQ, <10.0 ng/mL).
AUC(0-inf): Area under the plasma concentration vs. time curve extrapolated from 0 to infinity (ng*h/mL), calculated as AUC(0-t)+AUC(t-inf) where AUC(t-inf) is calculated as last measurable concentration (CLast) divided by ke, where ke is the elimination rate constant determined by linear regression of the last three analytically measured points on the log plasma concentration vs. time curve. The selection criteria of the data points for inclusion in the calculation of ke required that at least three data points representing the terminal phase (after Tmax) were regressed and that R2≧0.850 when rounded.
CL: Clearance (L/h/kg), calculated as the dose divided by AUC(0-t).
Vd: Volume of distribution (L/kg), calculated as dose divided by the product of ke and AUC(0-inf).
Vdss: Steady state volume of distribution (L/kg), calculated as clearance […] mean residence time, where mean residence time is calculated as the area under the first moment curve divided by AUC(0-t).
t½: Elimination half-life (h), calculated as ln(2)/ke, where ke is the elimination rate constant determined by linear regression. Half-life was defined as not determined if regression criteria (specified in AUC(0-inf) above) were not met.
Cmax/Dose: Normalized Cmax, calculated as Cmax divided by total dose.
AUC/Dose: Normalized AUC, calculated as AUC(0-t) divided by total dose.
ii. Statistical Analysis Mean and standard deviation (SD) were calculated in Watson. Values of BLQ were assigned a value of 0 ng/mL for mean calculations. Concentration values and derived TK parameters were reported to three significant figures.

[1] = male, rat, plasma, po, 30 mg/kg, oral 30 mg/kg, Study Day 14, Male

## CN1CCN(c2ccc(Nc3ncc4cc5n(c4n3)C3(CCCCC3)CNC5=O)nc2)CC1 [Compound 1, 2′-((5-(4-methylpiperazin-1-yl)pyridin-2-yl)amino)-7′,8′-dihydro-6′H-spiro[cyclohexane-1,9′-pyrazino[1′,2′:1,5]pyrrolo[2,3-d]pyrimidin]-6′-one]
[1]
  AUC(0-t): 29300 ng·h/mL
  Cmax: 2030 ng/mL
  Tmax: 4 h
male, rat, plasma, po, 30 mg/kg, oral 30 mg/kg, Study Day 14, Male, read-out: t½ (converted)
  half-life: 293 min
rats, Female, Day 1, 0.5 h, 2 mg/kg
  Compound 1 Plasma Concentration: 69.7 ng/mL and 120 ng/mL
rats, Female, Day 1, 1 h, 2 mg/kg
  Compound 1 Plasma Concentration: 53.3 ng/mL and 115 ng/mL and 106 ng/mL
rats, Female, Day 1, 2 h, 2 mg/kg
  Compound 1 Plasma Concentration: 185 ng/mL and 187 ng/mL
rats, Female, Day 1, 4 h, 2 mg/kg
  Compound 1 Plasma Concentration: 90.2 ng/mL and 201 ng/mL and 234 ng/mL
rats, Female, Day 1, 8 h, 2 mg/kg
  Compound 1 Plasma Concentration: 70.0 ng/mL and 69.2 ng/mL and 151 ng/mL
rats, Female, Day 1, 12 h, 2 mg/kg
  Compound 1 Plasma Concentration: 100 ng/mL and 54.7 ng/mL
rats, Female, Day 1, 24 h, 2 mg/kg
  Compound 1 Plasma Concentration: BLQ (Below the lower limit of quantitation (<10.0 ng/mL)) and 28.8 ng/mL and 10.2 ng/mL
rats, Female, Day 1, […]
  Compound 1 Plasma Concentration: BLQ (Below the lower limit of quantitation (<10.0 ng/mL))
rats, Female, Day 14, 0.5 h, 2 mg/kg
  Compound 1 Plasma Concentration: 108 ng/mL
rats, Female, Day 14, 1 h, 2 mg/kg
  Compound 1 Plasma Concentration: 113 ng/mL
rats, Female, Day 14, 2 h, 2 mg/kg
  Compound 1 Plasma Concentration: 200 ng/mL
rats, Female, Day 14, 4 h, 2 mg/kg
  Compound 1 Plasma Concentration: 119 ng/mL
rats, Female, Day 14, 8 h, 2 mg/kg
  Compound 1 Plasma Concentration: 54.0 ng/mL
rats, Female, Day 14, 12 h, 2 mg/kg
  Compound 1 Plasma Concentration: 65.4 ng/mL and 32.0 ng/mL
rats, Female, Day 14, 24 h, 2 mg/kg
  Compound 1 Plasma Concentration: BLQ (Below the lower limit of quantitation (<10.0 ng/mL))
rats, Female, Day 14, Predose
  Compound 1 Plasma Concentration: BLQ (Below the lower limit of quantitation (<10.0 ng/mL))
rats, Female, Day 14, […], 2 mg/kg
  Compound 1 Plasma Concentration: BLQ (Below the lower limit of quantitation (<10.0 ng/mL))
rats, Male, Day 1, 0.5 h, 2 mg/kg
  Compound 1 Plasma Concentration: 64.1 ng/mL and 74.1 ng/mL and 35.0 ng/mL
rats, Male, Day 1, 1 h, 2 mg/kg
  Compound 1 Plasma Concentration: 47.1 ng/mL and 65.2 ng/mL
rats, Male, Day 1, 2 h, 2 mg/kg
  Compound 1 Plasma Concentration: 113 ng/mL and 95.5 ng/mL
rats, Male, Day 1, 4 h, 2 mg/kg
  Compound 1 Plasma Concentration: 107 ng/mL and 148 ng/mL
rats, Male, Day 1, 8 h, 2 mg/kg
  Compound 1 Plasma Concentration: 108 ng/mL and 64.1 ng/mL
rats, Male, Day 1, 12 h, 2 mg/kg
  Compound 1 Plasma Concentration: 61.3 ng/mL and 47.8 ng/mL
rats, Male, Day 1, 24 h
  Compound 1 Plasma Concentration: BLQ (Below the lower limit of quantitation (<10.0 ng/mL))
rats, Male, Day 1, […]
  Compound 1 Plasma Concentration: BLQ (Below the lower limit of quantitation (<10.0 ng/mL))
rats, Male, Day 14, 0.5 h, 2 mg/kg
  Compound 1 Plasma Concentration: 49.0 ng/mL and 55.7 ng/mL
rats, Male, Day 14, 1 h, 2 mg/kg
  Compound 1 Plasma Concentration: 34.9 ng/mL and 61.2 ng/mL
rats, Male, Day 14, 2 h, 2 mg/kg
  Compound 1 Plasma Concentration: 109 ng/mL and 91.3 ng/mL
rats, Male, Day 14, 4 h, 2 mg/kg
  Compound 1 Plasma Concentration: 119 ng/mL and 112 ng/mL
rats, Male, Day 14, 8 h, 2 mg/kg
  Compound 1 Plasma Concentration: 112 ng/mL and 102 ng/mL
rats, Male, Day 14, 12 h, 2 mg/kg
  Compound 1 Plasma Concentration: 50.8 ng/mL and 45.6 ng/mL
rats, Male, Day 14, 24 h
  Compound 1 Plasma Concentration: BLQ (Below the lower limit of quantitation (<10.0 ng/mL))
rats, Male, Day 14, Predose
  Compound 1 Plasma Concentration: BLQ (Below the lower limit of quantitation (<10.0 ng/mL))
rats, Male, Day 14, […]
  Compound 1 Plasma Concentration: BLQ (Below the lower limit of quantitation (<10.0 ng/mL))
rats, oral 2 mg/kg, Day 1, 24 h, Male, BLQ = <10.0 ng/mL
  Mean Compound 1 Plasma Concentration: BLQ
rats, oral 2 mg/kg, Day 1, […], Female, BLQ = <10.0 ng/mL
  Mean Compound 1 Plasma Concentration: BLQ
rats, oral 2 mg/kg, Day 1, […], Male, BLQ = <10.0 ng/mL
  Mean Compound 1 Plasma Concentration: BLQ
rats, oral 2 mg/kg, Day 1, […], Overall, BLQ = <10.0 ng/mL
  Mean Compound 1 Plasma Concentration: BLQ
rats, oral 2 mg/kg, Day 14, 24 h, Male, BLQ = <10.0 ng/mL
  Mean Compound 1 Plasma Concentration: BLQ
rats, oral 2 mg/kg, Day 14, Pre-dose, Female, BLQ = <10.0 ng/mL
  Mean Compound 1 Plasma Concentration: BLQ
rats, oral 2 mg/kg, Day 14, Pre-dose, Male, BLQ = <10.0 ng/mL
  Mean Compound 1 Plasma Concentration: BLQ
rats, oral 2 mg/kg, Day 14, Pre-dose, Overall, BLQ = <10.0 ng/mL
  Mean Compound 1 Plasma Concentration: BLQ
rats, oral 2 mg/kg, Day 14, […], Male, BLQ = <10.0 ng/mL
  Mean Compound 1 Plasma Concentration: BLQ
rats, oral 5 mg/kg, Day 14, Pre-dose, Male
  Mean Compound 1 Plasma Concentration: 20.0 ng/mL
rats, oral 5 mg/kg, Day 14, Pre-dose, Overall
  Mean Compound 1 Plasma Concentration: 18.6 ng/mL
rats, oral 15 mg/kg, Day 14, Pre-dose, Female
  Mean Compound 1 Plasma Concentration: 120 ng/mL
rats, oral 15 mg/kg, Day 14, Pre-dose, Male
  Mean Compound 1 Plasma Concentration: 78.0 ng/mL
rats, oral 15 mg/kg, Day 14, Pre-dose, Overall
  Mean Compound 1 Plasma Concentration: 99.2 ng/mL
rats, oral 30 mg/kg, Day 14, Pre-dose, Female
  Mean Compound 1 Plasma Concentration: 336 ng/mL
rats, oral 30 mg/kg, Day 14, Pre-dose, Overall
  Mean Compound 1 Plasma Concentration: 254 ng/mL
rats, oral, Days 1 and 14
  systemic exposure with increasing dose level: increased roughly proportionally
